Results published in ChEMBL document CHEMBL4145573, “Antinociceptive Diterpenoids from the Leaves and Twigs of Rhododendron decorum” (2018).
The source made the active and inactive calls. No cut-off for these calls is given here.

Tests used:
[1] = test system: Mus musculus; experiment: Antinociceptive activity in Kunming mouse assessed as inhibition of acetic acid-induced writhes at 0.08 mg/kg, ip pretreated for 15 mins followed by acetic acid challenge measured for 30 mins relative to control; format: functional
[2] = test system: Mus musculus; experiment: Antinociceptive activity in Kunming mouse assessed as inhibition of acetic acid-induced writhes at 10 mg/kg, ip pretreated for 15 mins followed by acetic acid challenge measured for 30 mins; format: functional, organism-based
[3] = test system: Mus musculus; experiment: Antinociceptive activity in Kunming mouse assessed as inhibition of acetic acid-induced writhes at 0.8 mg/kg, ip pretreated for 15 mins followed by acetic acid challenge measured for 30 mins relative to control; format: functional

## CC1(C)[C@H]2O[C@H]2[C@H]2[C@](C)(O)[C@@H]3CC[C@]4(O)C[C@@]3(C[C@@H](O)[C@@]21O)C[C@@]4(C)O
[1]
  inhibition in vivo at 0.08 mg/kg: 78%

## C=C1C[C@]23C[C@H]1CC[C@H]2C(=C)[C@@H]1C[C@H](O[C@@H]2O[C@H](CO)[C@@H](O)[C@H](O)[C@H]2O)C(C)(C)[C@@]1(O)[C@H](O)C3
[2]
  inhibition: Active

## CC1(C)[C@@H](O)[C@H](O)[C@H]2[C@](C)(O)[C@@H]3CC[C@]4(O)C[C@@]3(C[C@@H](O)[C@@]21O)C[C@@]4(C)O
[3]
  inhibition in vivo at 0.8 mg/kg: 68%

## C=C1[C@@H]2[C@@H](O)[C@H](O)C(C)(C)[C@@]2(O)[C@H](O)C[C@@]23C[C@@](O)(CC[C@@H]12)[C@](C)(O)C3
[2]
  inhibition: Active

## CN1CC[C@]23c4c5ccc(O)c4O[C@H]2[C@@H](O)C=C[C@H]3[C@H]1C5 [MORPHINE]
[3]
  inhibition in vivo at 0.8 mg/kg: 86%

## C=C1[C@H]2C[C@@H](O)C(C)(C)[C@H](O)[C@@H]2C[C@@]23C[C@@](O)(CC[C@@H]12)[C@](C)(O)C3
[2]
  inhibition: Active

## C=C1[C@H]2CC[C@]3(O)C[C@@]2(C[C@@H](O)[C@@]2(O)[C@H]1C[C@H](O)C2(C)C)C[C@@]3(C)O
[2]
  inhibition: Active
